This note sets out measurements from patent US12336981B2, “Compounds and compositions for the inhibition of NAMPT” (Valo Health, Inc., priority 2010, dated 2025).

Read-outs that look alike come from different tables or passages of the source.

One assay concerns A2780 cells. Put plainly: In-vitro cell proliferation assay (SRB), A2780 cells. It is filed as cell-based. Particulars: Homo sapiens, A2780, 72 h, A2780 cells, 72 hours, read-out: A2780 IC50. In outline: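 Viable cells measured by SRB staining after 6% TCA fixation, absorbance 570 nm. Media-only background subtracted; % inhibition derived at two compound concentrations.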
The target of a further assay is T1, NAMPT (Homo sapiens, UniProt P43490).
T1 construct: His tag; host or cells: E. coli
The experiment in a line: Biochemical inhibition assay: NAMPT enzymatic reaction, NMN quantified by mass spectrometry. The following applies: read-out: Biochem IC50. The method in brief:
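Inhibition of E. coli-expressed His-tagged human NAMPT, measured as NMN formation by mass spectrometry after a 30 min room-temperature reaction containing 1 μM NAM, 100 μM PRPP and 2.5 mM ATP.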

T1 sequence (P43490 whole entry): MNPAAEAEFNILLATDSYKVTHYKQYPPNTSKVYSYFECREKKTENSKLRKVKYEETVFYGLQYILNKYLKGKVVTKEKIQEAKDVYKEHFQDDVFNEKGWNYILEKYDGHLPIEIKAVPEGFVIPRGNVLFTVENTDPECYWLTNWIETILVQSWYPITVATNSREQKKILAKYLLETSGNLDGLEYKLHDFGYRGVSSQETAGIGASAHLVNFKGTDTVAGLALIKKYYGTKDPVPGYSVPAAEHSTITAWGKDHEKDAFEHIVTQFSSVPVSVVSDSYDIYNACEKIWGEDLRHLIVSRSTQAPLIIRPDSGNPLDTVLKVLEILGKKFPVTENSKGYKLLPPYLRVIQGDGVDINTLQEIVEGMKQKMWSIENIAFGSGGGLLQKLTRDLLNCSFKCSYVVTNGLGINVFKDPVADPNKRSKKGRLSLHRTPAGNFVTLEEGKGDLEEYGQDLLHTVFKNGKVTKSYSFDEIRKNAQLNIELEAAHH

As usually defined, the IC50 is the midpoint of a concentration-inhibition curve. Consider `CC(C)COc1cc(F)cc(S(=O)(=O)c2ccc(CNC(=O)c3cnc4[nH]ncc4c3)cc2)c1` [N-[(4-{[3-fluoro-5-(2-methylpropoxy)benzene]sulfonyl}phenyl)methyl]-1H-pyrazolo[3,4-b]pyridine-5-carboxamide], for which the concentration for half-maximal inhibition (IC50) in the assay with A2780 cells (SRB) came out at 9.49 nM; on NAMPT (NAMPT enzymatic assay), 11.2 nM.

Regarding `CC(C)COc1cc(F)cc(S(=O)(=O)c2ccc(CNC(=O)c3cc4ccncc4o3)cc2)c1` [N-[(4-{[3-fluoro-5-(2-methylpropoxy)benzene]sulfonyl}phenyl)methyl]furo[2,3-c]pyridine-2-carboxamide], the values for the concentration for half-maximal inhibition (IC50) with A2780 cells (SRB) and at NAMPT (NAMPT enzymatic assay) were 12.9 nM and 10.3 nM, respectively.

Consider `O=C(NCc1ccc(S(=O)(=O)c2cc(F)cc(C(F)(F)F)c2)cc1)c1cnc2[nH]ncc2c1` [N-[(4-{[3-fluoro-5-(trifluoromethyl)benzene]sulfonyl}phenyl)methyl]-1H-pyrazolo[3,4-b]pyridine-5-carboxamide], for which the IC50 in the assay on A2780 cells (SRB) amounted to 3.45 nM; on NAMPT (NAMPT enzymatic assay), 11.2 nM.

Turning to `O=C(NCc1ccc(S(=O)(=O)c2cc(F)cc(C(F)(F)F)c2)cc1)c1cc2ccncc2s1` [N-[(4-{[3-fluoro-5-(trifluoromethyl)benzene]sulfonyl}phenyl)methyl]thieno[2,3-c]pyridine-2-carboxamide], the IC50 in the assay on A2780 cells (SRB) was determined as 3.1 nM; at NAMPT (NAMPT enzymatic assay), 10.2 nM.

As for `CC(C)COc1ccc(S(=O)(=O)c2ccc(CNC(=O)c3cnc4[nH]ncc4c3)cc2)cc1` [N-[(4-{[4-(2-methylpropoxy)benzene]sulfonyl}phenyl)methyl]-1H-pyrazolo[3,4-b]pyridine-5-carboxamide], the IC50 is 16.2 nM in the assay with A2780 cells (SRB) and 26.3 nM on NAMPT (NAMPT enzymatic assay).

`CCOc1ccc(-c2ccc(S(=O)(=O)c3ccc(CNC(=O)c4cc5cnccc5[nH]4)cc3)cc2)cc1` [N-[(4-{[4-(4-ethoxyphenyl)benzene]sulfonyl}phenyl)methyl]-1H-pyrrolo[3,2-c]pyridine-2-carboxamide]: the IC50 in the assay on A2780 cells (SRB) and on NAMPT (NAMPT enzymatic assay) was 9 nM throughout.

`O=C(NCc1ccc(S(=O)(=O)c2ccc(C(F)F)c(F)c2)cc1)c1cnc2nccn2c1` [N-[(4-{[4-(difluoromethyl)-3-fluorobenzene]sulfonyl}phenyl)methyl]imidazo[1,2-a]pyrimidine-6-carboxamide]: the IC50 turned out to be 27.9 nM in the assay with A2780 cells (SRB) and 8.2 nM at NAMPT (NAMPT enzymatic assay).

Turning to `CN(C)C(=O)c1ccc(S(=O)(=O)c2ccc(CNC(=O)c3cc4cnccc4[nH]3)cc2)cc1` [N-[(4-{[4-(dimethylcarbamoyl)benzene]sulfonyl}phenyl)methyl]-1H-pyrrolo[3,2-c]pyridine-2-carboxamide], the results for the half-maximal inhibitory concentration (IC50) in the assay on A2780 cells (SRB assay) and at NAMPT (NAMPT enzymatic reaction) were 14 nM and 27 nM, respectively.

For the molecule `CCOCc1ccc(S(=O)(=O)c2ccc(CNC(=O)c3cnc4[nH]ncc4c3)cc2)cc1` [N-[(4-{[4-(ethoxymethyl)benzene]sulfonyl}phenyl)methyl]-1H-pyrazolo[3,4-b]pyridine-5-carboxamide], the concentration for half-maximal inhibition (IC50) was 12.8 nM in the assay with A2780 cells (SRB) and 26.6 nM at NAMPT (NAMPT enzymatic assay).

Regarding `CCNC(=O)c1ccc(S(=O)(=O)c2ccc(CNC(=O)c3cnc4[nH]ncc4c3)cc2)cc1` [N-[(4-{[4-(ethylcarbamoyl)benzene]sulfonyl}phenyl)methyl]-1H-pyrazolo[3,4-b]pyridine-5-carboxamide], the results for the half-inhibitory concentration (IC50) in the assay with A2780 cells (SRB) and at NAMPT (NAMPT enzymatic assay) were 96.8 nM and 103 nM, respectively.

Consider `O=C(NCc1ccc(S(=O)(=O)c2ccc(CO)cc2)cc1)c1cc2ccncc2s1` [N-[(4-{[4-(hydroxymethyl)benzene]sulfonyl}phenyl)methyl]thieno[2,3-c]pyridine-2-carboxamide], for which the IC50 was 6.6 nM with A2780 cells (SRB) and 3.8 nM on NAMPT (NAMPT enzymatic assay).

Turning to `O=C(NCc1ccc(S(=O)(=O)c2ccc(N3CCOCC3)cc2)cc1)c1cnc2[nH]ncc2c1` [N-[(4-{[4-(morpholin-4-yl)benzene]sulfonyl}phenyl)methyl]-1H-pyrazolo[3,4-b]pyridine-5-carboxamide], the concentration for half-maximal inhibition (IC50) in the assay with A2780 cells (SRB) came out at 2.47 nM; on NAMPT (NAMPT enzymatic assay) it was 4.45 nM.

For the molecule `CC(C)c1ccc(S(=O)(=O)c2ccc(CNC(=O)c3ccc4nccn4c3)cc2)cc1` [N-[(4-{[4-(propan-2-yl)benzene]sulfonyl}phenyl)methyl]imidazo[1,2-a]pyridine-6-carboxamide], the IC50 in the assay on A2780 cells (SRB) amounted to 6.66 nM; on NAMPT (NAMPT enzymatic assay) it was 14.6 nM.

As to `CC(C)c1ccc(S(=O)(=O)c2ccc(CNC(=O)c3cc4ccncc4s3)cc2)cc1` [N-[(4-{[4-(propan-2-yl)benzene]sulfonyl}phenyl)methyl]thieno[2,3-c]pyridine-2-carboxamide], the IC50 in the assay with A2780 cells (SRB assay) was determined as 7.1 nM; on NAMPT (NAMPT enzymatic reaction) it was 6 nM.

Regarding `CC(C)Oc1ccc(S(=O)(=O)c2ccc(CNC(=O)c3cnc4[nH]ncc4c3)cc2)cc1` [N-[(4-{[4-(propan-2-yloxy)benzene]sulfonyl}phenyl)methyl]-1H-pyrazolo[3,4-b]pyridine-5-carboxamide], the IC50 with A2780 cells (SRB) was 6.6 nM; on NAMPT (NAMPT enzymatic assay), 8 nM.

As to `O=C(NCc1ccc(S(=O)(=O)c2ccc(C(F)(F)F)cc2)cc1)c1cnc2[nH]ncc2c1` [N-[(4-{[4-(trifluoromethyl)benzene]sulfonyl}phenyl)methyl]-1H-pyrazolo[3,4-b]pyridine-5-carboxamide], the 50% inhibitory concentration (IC50) with A2780 cells (SRB) was 19.4 nM; on NAMPT (NAMPT enzymatic assay), 19.9 nM.

In the case of `O=C(NCc1ccc(S(=O)(=O)c2ccc(C(F)(F)F)cc2)cc1)c1cc2cnccc2[nH]1` [N-[(4-{[4-(trifluoromethyl)benzene]sulfonyl}phenyl)methyl]-1H-pyrrolo[3,2-c]pyridine-2-carboxamide], the half-inhibitory concentration (IC50) stood at 26 nM with A2780 cells (SRB assay) and 24 nM on NAMPT (NAMPT enzymatic reaction).

As to `O=C(NCc1ccc(S(=O)(=O)Nc2ccc(Cl)cc2OC(F)(F)F)cc1)c1cc2cnccc2[nH]1` [N-[(4-{[4-chloro-2-(trifluoromethoxy)phenyl]sulfamoyl}phenyl)methyl]-1H-pyrrolo[3,2-c]pyridine-2-carboxamide], the half-maximal inhibitory concentration (IC50) with A2780 cells (SRB assay) and on NAMPT (NAMPT enzymatic reaction) was 2 nM each time.

`O=C(NCc1ccc(S(=O)(=O)c2ccc(Cl)cc2C(F)(F)F)cc1)c1cnc2[nH]ncc2c1` [N-[(4-{[4-chloro-2-(trifluoromethyl)benzene]sulfonyl}phenyl)methyl]-1H-pyrazolo[3,4-b]pyridine-5-carboxamide]: the results for the IC50 with A2780 cells (SRB) and on NAMPT (NAMPT enzymatic assay) were 78.3 nM and 147 nM, respectively.

On to `O=C(NCc1ccc(S(=O)(=O)c2ccc(Cl)c(C(F)(F)F)c2)cc1)c1cc2cnccc2[nH]1` [N-[(4-{[4-chloro-3-(trifluoromethyl)benzene]sulfonyl}phenyl)methyl]-1H-pyrrolo[3,2-c]pyridine-2-carboxamide], for which the IC50 in the assay with A2780 cells (SRB assay) is 5 nM; on NAMPT (NAMPT enzymatic reaction), 8 nM.

`O=C(NCc1ccc(S(=O)(=O)c2ccc(Cl)c(C(F)(F)F)c2)cc1)c1ccc2nccn2c1` [N-[(4-{[4-chloro-3-(trifluoromethyl)benzene]sulfonyl}phenyl)methyl]imidazo[1,2-a]pyridine-6-carboxamide]: the IC50 in the assay with A2780 cells (SRB) turned out to be 3.57 nM; on NAMPT (NAMPT enzymatic assay), 9.84 nM.

Take `O=C(NCc1ccc(S(=O)(=O)c2ccc(Cl)c(C(F)(F)F)c2)cc1)c1cc2ccncc2s1` [N-[(4-{[4-chloro-3-(trifluoromethyl)benzene]sulfonyl}phenyl)methyl]thieno[2,3-c]pyridine-2-carboxamide]: the IC50 is 3.4 nM in the assay on A2780 cells (SRB assay) and 10 nM on NAMPT (NAMPT enzymatic reaction).

As for `CC(C)Oc1cc(F)ccc1S(=O)(=O)c1ccc(CNC(=O)c2cnc3nccn3c2)cc1` [N-[(4-{[4-fluoro-2-(propan-2-yloxy)benzene]sulfonyl}phenyl)methyl]imidazo[1,2-a]pyrimidine-6-carboxamide], the half-inhibitory concentration (IC50) amounted to 15 nM in the assay on A2780 cells (SRB) and 3.5 nM at NAMPT (NAMPT enzymatic assay).

Consider `O=C(NCc1ccc(S(=O)(=O)c2ccc(F)cc2C(F)(F)F)cc1)c1cnc2[nH]ncc2c1` [N-[(4-{[4-fluoro-2-(trifluoromethyl)benzene]sulfonyl}phenyl)methyl]-1H-pyrazolo[3,4-b]pyridine-5-carboxamide], for which the concentration for half-maximal inhibition (IC50) with A2780 cells (SRB) turned out to be 109 nM; at NAMPT (NAMPT enzymatic assay), 112 nM.

On to `O=C(NCc1ccc(S(=O)(=O)c2ccc(F)c(C(F)(F)F)c2)cc1)c1cnc2[nH]ncc2c1` [N-[(4-{[4-fluoro-3-(trifluoromethyl)benzene]sulfonyl}phenyl)methyl]-1H-pyrazolo[3,4-b]pyridine-5-carboxamide], for which the IC50 was found to be 13.8 nM in the assay on A2780 cells (SRB) and 39.4 nM at NAMPT (NAMPT enzymatic assay).

As for `COc1ccc(S(=O)(=O)c2ccc(CNC(=O)c3cnc4[nH]ncc4c3)cc2)c(C(F)(F)F)c1` [N-[(4-{[4-methoxy-2-(trifluoromethyl)benzene]sulfonyl}phenyl)methyl]-1H-pyrazolo[3,4-b]pyridine-5-carboxamide], the IC50 is 62.8 nM in the assay with A2780 cells (SRB) and 86.8 nM on NAMPT (NAMPT enzymatic assay).

Take `CC(C)Oc1ccc(Cl)cc1S(=O)(=O)c1ccc(CNC(=O)c2cnc3[nH]ncc3c2)cc1` [N-[(4-{[5-chloro-2-(propan-2-yloxy)benzene]sulfonyl}phenyl)methyl]-1H-pyrazolo[3,4-b]pyridine-5-carboxamide]: the IC50 in the assay with A2780 cells (SRB) amounted to 27.1 nM; on NAMPT (NAMPT enzymatic assay), 67.8 nM.

As to `CC(C)Oc1ccc(Cl)cc1S(=O)(=O)c1ccc(CNC(=O)c2cnc3nccn3c2)cc1` [N-[(4-{[5-chloro-2-(propan-2-yloxy)benzene]sulfonyl}phenyl)methyl]imidazo[1,2-a]pyrimidine-6-carboxamide], the IC50 came to 14.6 nM in the assay on A2780 cells (SRB) and 4.7 nM at NAMPT (NAMPT enzymatic assay).

Take `O=C(NCc1ccc(S(=O)(=O)c2cc(F)ccc2CO)cc1)c1cnc2[nH]ncc2c1` [N-[(4-{[5-fluoro-2-(hydroxymethyl)benzene]sulfonyl}phenyl)methyl]-1H-pyrazolo[3,4-b]pyridine-5-carboxamide]: the figures for the 50% inhibitory concentration (IC50) in the assay with A2780 cells (SRB) and at NAMPT (NAMPT enzymatic assay) were 100 to 1000 nM and 109 nM, respectively.

On to `O=C(NCc1ccc(S(=O)(=O)c2cc(F)ccc2CO)cc1)c1cc2ccncc2o1` [N-[(4-{[5-fluoro-2-(hydroxymethyl)benzene]sulfonyl}phenyl)methyl]furo[2,3-c]pyridine-2-carboxamide], for which the results for the half-inhibitory concentration (IC50) with A2780 cells (SRB) and at NAMPT (NAMPT enzymatic assay) were 67 nM and 22.9 nM, respectively.
